pIC50: −log10 of the molar value.
Columns and labels:
[1] = molecular target: KRAS G12D (Homo sapiens, UniProt P01116, G12D); assay: GDP-GTP exchange assay, KRAS G12D; assay type: biochemical; conditions: bodipy-loaded KRAS G12D 2.5 nM, GppNHp 500 uM, SOS1 150 nM; 4 hours pre-incubation, 2 hours incubation; read-out: G12D_exchange
Method: Inhibitors were serially diluted in DMSO and a volume of 0.1 μL was transferred to the wells of a black low volume 384-well plate. […] The exchange was initiated by the addition of a 5 μL/well volume containing 1 mM GppNHp and 300 nM SOS1 in assay buffer. […] The reaction plates were incubated at ambient temperature for 2 hours, a time estimated for complete GDP-GTP exchange in the absence of inhibitor.
Either GraphPad prism or Genedata Screener SmartFit was used to analyze the data. The IC50 values were derived by fitting the data to a four parameter logistic equation producing a sigmoidal dose-response curve with a variable Hill coefficient.
“NA” indicates IC50 not available.

[2] = tested on: Caco-2 cells; assay: Caco2 assay (permeability, A-B); assay type: in vitro ADME; conditions: Papp absorptive direction (A-B), test compound 50 μM, 120 minutes at 37° C.
Method: Caco-2 cells are grown at 37° C. in an atmosphere of 5% CO2 in DMEM growth medium supplemented with 10% (v/v) fetal bovine serum, 1% (v/v) nonessential amino acids, penicillin (100 U/mL), and streptomycin (100 μg/mL). Confluent cell monolayers are subcultured every 7 days or 4 days for Caco-2 by treatment with 0.05% trypsin containing […]. Caco-2 cells are seeded in 96-well Transwell plates. The seeding density for Caco-2 cells is 14,000 cells/well. DMEM growth medium is replaced every other day after seeding. Cell monolayers are used for transport assays between 22 and 25 days for Caco-2 cells.
Cell culture medium is removed and replaced with HBSS. To measure the TEER, the HBSS is added into the donor compartment (apical side) and receiver compartment (basolateral side). The TEER is measured by using a REMS Autosampler to ensure the integrity of the cell monolayers. Caco-2 cell monolayers with TEER values ≥300 Ω·cm^2 are used for transport experiments. To determine the Papp in the absorptive direction (A-B), solution of test compound (50 μM) in HBSS is added to the donor compartment (apical side), while HBSS solution with 4% BSA is added to the receiver compartment (basolateral side). The apical volume was 0.075 mL, and the basolateral volume is 0.25 mL. The incubation period is 120 minutes at 37° C. in an atmosphere of 5% CO2. At the end of the incubation period, samples from the donor and receiver sides are removed and an equal volume of acetonitrile is added for protein precipitation. The supernatants are collected after centrifugation (3000 rpm, Allegra X-14R Centrifuge from Beckman Coulter, Indianapolis, IN) for LCMS analysis. The permeability value is determined according to the equation:
[formula] • where the flux rate (F, mass/time) is calculated from the slope of cumulative amounts of compound of interest on the receiver side, SA is the surface area of the cell membrane, VD is the donor volume, and MD is the initial amount of the solution in the donor chamber.
The symbol “+” indicates a Caco-2 value of […], “++” indicates a Caco-2 value of >0.5 but ≤1; and “+++” indicates a Caco-2 value of >1. “NA” indicates IC50 not available.

[3] = molecular target: KRAS G12V mutant (Homo sapiens, UniProt P01116, G12V); assay: GDP-GTP exchange assay, KRAS G12V; assay type: biochemical; conditions: bodipy loaded KRAS G12V 2.5 nM; 3 hours incubation after adding GppNHp-SOS1 mixture; read-out: G12V_exchange
Chain of KRAS G12V mutant (P01116 1-188 isoform P01116-2 G12V): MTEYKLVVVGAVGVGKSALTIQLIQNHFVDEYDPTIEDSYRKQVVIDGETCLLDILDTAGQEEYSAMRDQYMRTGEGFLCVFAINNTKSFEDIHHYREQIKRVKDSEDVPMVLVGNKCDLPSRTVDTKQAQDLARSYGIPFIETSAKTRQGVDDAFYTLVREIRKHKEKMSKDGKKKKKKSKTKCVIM

Chain of KRAS G12D (P01116 1-188 isoform P01116-2 G12D): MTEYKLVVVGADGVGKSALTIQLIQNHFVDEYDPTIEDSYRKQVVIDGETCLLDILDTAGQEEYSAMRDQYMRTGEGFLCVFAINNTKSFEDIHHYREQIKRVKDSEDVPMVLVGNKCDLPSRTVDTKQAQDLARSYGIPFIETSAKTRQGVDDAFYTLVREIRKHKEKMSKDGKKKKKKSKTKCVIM

Compound: Cc1nc2c(F)c(-c3cccc(Cl)c3Cl)c(CCC#N)cc2c2c1cc([C@@H](C)NC(=O)c1ccncn1)n2[C@H]1[C@H]2CN[C@@H]1C2 [Example 68, N-((1R)-1-(1-((1R,4R,5S)-2-azabicyclo[2.1.1]hexan-5-yl)-8-(2-cyanoethyl)-7-(2,3-dichlorophenyl)-6-fluoro-4-methyl-1H-pyrrolo[3,2-c]quinolin-2-yl)ethyl)pyrimidine-4-carboxamide]
- pIC50 [1]: > 7.00
- Caco-2 ([2]; Table 4): +++ (a Caco-2 value of >1)
- pIC50 [3]: > 7.00

Compound: CC(=O)N1CC[C@H](n2ncc3c(O[C@@H](C)[C@@H]4CCCN4C)nc4c(F)c(-c5cccc6cccc(C#N)c56)c(C#N)cc4c32)C[C@H]1CC#N (single isomer, unassigned) [Example 7]
- pIC50 [1]: > 7.00
- Caco-2 ([2]; Table 3): +++ (a Caco-2 value of >1)
- pIC50 [3]: > 7.00

Compound: Cc1cc2c(-n3cncn3)nc3c(F)c(-c4cc(O)cc5ccc(Cl)cc45)c(CCC#N)cc3c2n1[C@H]1[C@H]2CN[C@@H]1C2 [Example 1, 3-(1-((1R,4R,5S)-2-Azabicyclo[2.1.1]hexan-5-yl)-7-(7-chloro-3-hydroxynaphthalen-1-yl)-6-fluoro-2-methyl-4-(1H-1,2,4-triazol-1-yl)-1H-pyrrolo[3,2-c]quinolin-8-yl)propanenitrile]
- pIC50 [1]: > 7.00
- Caco-2 ([2]; Table 3): ++ (a Caco-2 value of >0.5 but ≤1)
- pIC50 [3]: > 7.00

Compound: COC(=O)N[C@H](C)c1cc2c(C)nc3c(F)c(-c4cccc(Cl)c4Cl)c(CCC#N)cc3c2n1[C@H]1[C@H]2CN[C@@H]1C2 [Example 55, Methyl ((1R)-1-(1-((1R,4R,5S)-2-azabicyclo[2.1.1]hexan-5-yl)-8-(2-cyanoethyl)-7-(2,3-dichlorophenyl)-6-fluoro-4-methyl-1H-pyrrolo[3,2-c]quinolin-2-yl)ethyl)carbamate]
- pIC50 [1]: > 7.00
- Caco-2 ([2]; Table 4): +++ (a Caco-2 value of >1)
- pIC50 [3]: > 7.00

Compound: Cc1cc(C(C)c2cc3c(C)nc4c(F)c(-c5cccc(Cl)c5C)c(CCC#N)cc4c3n2[C@H]2[C@H]3CN[C@@H]2C3)c(=O)n(C)n1 (stereo partly drawn) [Example 67, 3-(1-((1R,4R,5S)-2-azabicyclo[2.1.1]hexan-5-yl)-7-(3-chloro-2-methylphenyl)-2-(1-(2,6-dimethyl-3-oxo-2,3-dihydropyridazin-4-yl)ethyl)-6-fluoro-4-methyl-1H-pyrrolo[3,2-c]quinolin-8-yl)propanenitrile]
- pIC50 [1]: > 7.00
- Caco-2 ([2]; Table 4): +++ (a Caco-2 value of >1)
- pIC50 [3]: > 7.00

Compound: CC(O)c1nc2c(F)c(-c3cccc(Cl)c3Cl)c(CCC#N)cc2c2c1cc([C@H]1C[C@H]3C[C@H]3N1C(=O)C1(C)CC1)n2[C@H]1[C@H]2CN[C@@H]1C2 (stereo partly drawn) [Example 62, 3-(1-((1R,4R,5S)-2-Azabicyclo[2.1.1]hexan-5-yl)-7-(2,3-dichlorophenyl)-6-fluoro-4-(1-hydroxyethyl)-2-((1R,3R,5R)-2-(1-methylcyclopropane-1-carbonyl)-2-azabicyclo[3.1.0]hexan-3-yl)-1H-pyrrolo[3,2-c]quinolin-8-yl)propanenitrile]
- pIC50 [1]: > 7.00
- Caco-2 ([2]; Table 4): +++ (a Caco-2 value of >1)
- pIC50 [3]: > 7.00

Compound: CNC(=O)c1ncc(-c2nc3c(F)c(-c4cccc(Cl)c4Cl)c(CCC#N)cc3c3c2cc([C@H]2CCCN2C(=O)OC)n3[C@H]2[C@H]3CN[C@@H]2C3)cc1F [Example 39, Methyl (2R)-2-(1-((1R,4R,5S)-2-azabicyclo[2.1.1]hexan-5-yl)-8-(2-cyanoethyl)-7-(2,3-dichlorophenyl)-6-fluoro-4-(5-fluoro-6-(methylcarbamoyl)pyridin-3-yl)-1H-pyrrolo[3,2-c]quinolin-2-yl)pyrrolidine-1-carboxylate]
- pIC50 [1]: > 7.00
- Caco-2 ([2]; Table 4): ++ (a Caco-2 value of >0.5 but ≤1)
- pIC50 [3]: > 7.00

Compound: CC(O)c1nc2c(F)c(-c3cccc(Cl)c3Cl)c(CCC#N)cc2c2c1cc([C@@H](C)NC(=O)C1(F)CC1)n2[C@H]1[C@H]2CN[C@@H]1C2 (stereo partly drawn) [Example 65, N-((1R)-1-(1-((1R,4R,5S)-2-Azabicyclo[2.1.1]hexan-5-yl)-8-(2-cyanoethyl)-7-(2,3-dichlorophenyl)-6-fluoro-4-(1-hydroxyethyl)-1H-pyrrolo[3,2-c]quinolin-2-yl)ethyl)-1-fluorocyclopropane-1-carboxamide]
- pIC50 [1]: > 7.00
- Caco-2 ([2]; Table 4): +++ (a Caco-2 value of >1)
- pIC50 [3]: > 7.00

Compound: Cc1cnc(-c2nc3c(F)c(-c4cccc5ccc(F)cc45)c(CCC#N)cc3c3c2cc([C@@H](C)N2CCOCC2=O)n3[C@H]2[C@H]3CN[C@@H]2C3)cn1 [Example 47, 3-(1-((1R,4R,5S)-2-Azabicyclo[2.1.1]hexan-5-yl)-6-fluoro-7-(7-fluoronaphthalen-1-yl)-4-(5-methylpyrazin-2-yl)-2-((R)-1-(3-oxomorpholino)ethyl)-1H-pyrrolo[3,2-c]quinolin-8-yl)propanenitrile]
- pIC50 [1]: > 7.00
- Caco-2 ([2]; Table 4): +++ (a Caco-2 value of >1)
- pIC50 [3]: > 7.00

Compound: COC(=O)N1CCC[C@@H]1c1cc2c(-c3ccc(C(=O)N(C)C)nc3)nc3c(F)c(-c4cccc(Cl)c4Cl)c(CCC#N)cc3c2n1[C@H]1[C@H]2CN[C@@H]1C2 [Example 32, Methyl (2R)-2-(1-((1R,4R,5S)-2-azabicyclo[2.1.1]hexan-5-yl)-8-(2-cyanoethyl)-7-(2,3-dichlorophenyl)-4-(6-(dimethylcarbamoyl)pyridin-3-yl)-6-fluoro-1H-pyrrolo[3,2-c]quinolin-2-yl)pyrrolidine-1-carboxylate]
- pIC50 [1]: > 7.00
- Caco-2 ([2]; Table 4): ++ (a Caco-2 value of >0.5 but ≤1)
- pIC50 [3]: > 7.00

Compound: C[C@@H](CN(C)C)Oc1nc2c(F)c(-c3cccc4ccc(F)cc34)c(CCC#N)cc2c2c1cc(CN1CCCC1=O)n2[C@H]1[C@H]2CN[C@@H]1C2 (single isomer, unassigned) [Example 10]
- pIC50 [1]: > 7.00
- Caco-2 ([2]; Table 3): + (a Caco-2 value of 50.5)
- pIC50 [3]: > 7.00

Compound: C[C@H](Oc1nc2c(F)c(-c3cccc4cc(F)c(F)cc34)c(CCC#N)cc2c2c1cc(CCC(=O)N1CCC1)n2[C@H]1[C@H]2CN[C@@H]1C2)[C@@H]1CCCN1C (single isomer, unassigned) [Example 21]
- pIC50 [1]: > 7.00
- Caco-2 ([2]; Table 3): + (a Caco-2 value of 50.5)
- pIC50 [3]: > 7.00

Compound: Cc1cc2c(O[C@@H](C)[C@@H]3CCCN3C)nc3c(F)c(-c4c[nH]c5c(F)cc(F)cc45)c(CCC#N)cc3c2n1[C@H]1[C@H]2CN[C@@H]1C2 [Example 2, 3-(1-((1R,4R,5S)-2-Azabicyclo[2.1.1]hexan-5-yl)-7-(5,7-difluoro-1H-indol-3-yl)-6-fluoro-2-methyl-4-((S)-1-((S)-1-methylpyrrolidin-2-yl)ethoxy)-1H-pyrrolo[3,2-c]quinolin-8-yl)propanenitrile]
- pIC50 [1]: > 7.00
- Caco-2 ([2]; Table 3): + (a Caco-2 value of 50.5)
- pIC50 [3]: > 7.00

Compound: COC(=O)N1CCC[C@@H]1c1cc2c(-c3ccc(CN(C)C)c(F)c3F)nc3c(F)c(-c4cccc(Cl)c4Cl)c(CCC#N)cc3c2n1[C@H]1[C@H]2CN[C@@H]1C2 [Example 73, methyl (2R)-2-(1-((1R,4R,5S)-2-Azabicyclo[2.1.1]hexan-5-yl)-8-(2-cyanoethyl)-7-(2,3-dichlorophenyl)-4-(4-((dimethylamino)methyl)-2,3-difluorophenyl)-6-fluoro-1H-pyrrolo[3,2-c]quinolin-2-yl)pyrrolidine-1-carboxylate]
- pIC50 [1]: > 7.00
- Caco-2 ([2]; Table 4): +++ (a Caco-2 value of >1)
- pIC50 [3]: > 7.00

Compound: CC(O)c1nc2c(F)c(-c3cccc(Cl)c3Cl)c(CCC#N)cc2c2c1cc([C@H]1C[C@H]3C[C@H]3N1C(=O)C1(F)CC1)n2[C@H]1[C@H]2CN[C@@H]1C2 (stereo partly drawn) [Example 63, 3-(1-((1R,4R,5S)-2-Azabicyclo[2.1.1]hexan-5-yl)-7-(2,3-dichlorophenyl)-6-fluoro-2-((1R,3R,5R)-2-(1-fluorocyclopropane-1-carbonyl)-2-azabicyclo[3.1.0]hexan-3-yl)-4-(1-hydroxyethyl)-1H-pyrrolo[3,2-c]quinolin-8-yl)propanenitrile]
- pIC50 [1]: > 7.00
- Caco-2 ([2]; Table 4): +++ (a Caco-2 value of >1)
- pIC50 [3]: > 7.00

Source: patent US12378243B2, “Quinoline compounds as inhibitors of KRAS” (Incyte Corporation, priority 2021, dated 2025)
